According to patent US7759337B2, “Phthalazine compounds and methods of use” (Amgen Inc., priority 2005, dated 2010):
pIC50: −log10 of the molar value.

Each compound was assayed on production of TNF by monocytes activated with bacterial lipopolysaccharide (LPS) (assay: Lipopolysaccharide-activated monocyte TNF production assay). Conditions: Homo sapiens; whole blood monocyte assay (LPS induced TNF release).
Assay type: cell-based
Description: Test compounds were evaluated in vitro for the ability to inhibit the production of TNF by monocytes activated with bacterial lipopolysaccharide (LPS). Fresh residual source leukocytes (a byproduct of plateletpheresis) were obtained from a local blood bank, and peripheral blood mononuclear cells (PBMCs) were isolated by density gradient centrifugation on Ficol-Paque Plus (Pharmacia). PBMCs were suspended at 2×10^6/mL in DMEM supplemented to contain 2% FCS, 10 mM, 0.3 mg/mL […], 100 U/mL penicillin G and […] streptomycin sulfate (complete media). Cells were plated into Falcon flat bottom, 96 well culture plates (200 μL/well) and cultured overnight at 37° C. and 6% CO2. Non-adherent cells were removed by washing with 200 μl/well of fresh medium.
Test compounds were dissolved in […]. Compound stock solutions were prepared to an initial concentration of […]. Stocks were diluted initially to 20-200 μM in complete media. Nine two-fold serial dilutions of each compound were then prepared in complete medium.
One hundred microliters of each test compound dilution were added to microtiter wells containing adherent monocytes and 100 μL complete medium. Monocytes were cultured with test compounds for 60 min at which time 25 μL of complete medium containing 30 ng/mL lipopolysaccharide from E. coli K532 were added to each well. Cells were cultured an additional 4 hrs. Culture supernatants were then removed and TNF presence in the supernatants was quantified using an ELISA.
Flat bottom, 96 well Corning High Binding ELISA plates were coated overnight (4° C.) with 150 μL/well of 3 μg/mL murine anti-human TNF-α MAb (R&D Systems #MAB210). Wells were then blocked for 1 h at room temperature with 200 μL/well of CaCl2-free ELISA buffer supplemented to contain 20 mg/mL BSA (standard ELISA buffer: […], 150 mM NaCl, 2 mM CaCl2, 0.15 mM thimerosal, pH 7.4). Plates were washed and replenished with 100 μL of test supernatants (diluted 1:3) or standards. Standards consisted of eleven 1.5-fold serial dilutions from a stock of I ng/mL recombinant human TNF (R&D Systems). Plates were incubated at room temperature for 1 h on orbital shaker (300 rpm), washed and replenished with 100 μL/well of 0.5 μg/mL goat anti-human TNF-α (R&D systems #AB-210-NA) biotinylated at a 4:1 ratio. Plates were incubated for 40 min, washed and replenished with 100 μL/well of alkaline phosphatase-conjugated streptavidin (Jackson ImmunoResearch #016-050-084) at 0.02 μg/mL. Plates were incubated 30 min, washed and replenished with 200 μL/well of 1 mg/mL of p-nitrophenyl phosphate. After 30 min, plates were read at 405 nm on a Vmax plate reader.
Standard curve data were fit to a second order polynomial and unknown TNF-α concentrations determined from their OD by solving this equation for concentration. TNF concentrations were then plotted vs. test compound concentration using a second order polynomial. This equation was then used to calculate the concentration of test compounds causing a 50% reduction in TNF production.
`Cc1ccc(C(N)=O)cc1-c1ccc2c(N3C[C@@H](C)NC[C@@H]3C)nncc2c1` [Example 122, 3-{1-[(2S,5R)-2,5-dimethylpiperazin-1-yl]phthalazin-6-yl}-4-methylbenzamide] showed a pIC50 of at least 5.30.
Work on `Cc1ccc(C(=O)NC2CC2)cc1-c1ccc2c(N3C[C@H](C)OC[C@@H]3C)nncc2c1` [Example 123, N-cyclopropyl-3-{1-[(2S,5S)-2,5-dimethylmorpholin-4-yl]phthalazin-6-yl}-4-methylbenzamide] yielded a pIC50 of at least 5.30.
For `Cc1ccc(C(=O)NC2CC2)cc1-c1ccc2c(N3CCN(C(=O)Nc4ccccc4)CC3)nncc2c1` [Example 124, 4-(6-{5-[(cyclopropylamino)carbonyl]-2-methylphenyl}phthalazin-1-yl)-N-phenylpiperazine-1-carboxamide], the pIC50 was at least 5.30.
For `Cc1ccc(C(=O)NC2CC2)cc1-c1ccc2c(N3C[C@@H]4C[C@H]3CN4)nncc2c1` [Example 125, N-cyclopropyl-3-{1-[(1S,4S)-2,5-diazabicyclo[2.2.1]hept-2-yl]phthalazin-6-yl}-4-methylbenzamide], the pIC50 was at least 5.30.
With `Cc1ccc(C(=O)NC2CC2)cc1-c1ccc2c(N3C[C@@H]4C[C@H]3CN4C(=O)OC(C)(C)C)nncc2c1` [Example 126, tert-butyl (1S,4S)-5-(6-{5-[(cyclopropylamino)carbonyl]-2-methylphenyl}phthalazin-1-yl)-2,5-diazabicyclo[2.2.1]heptane-2-carboxylate] the pIC50 was at least 5.30.
Compound `Cc1ccc(C(N)=O)cc1-c1ccc2c(N3CCS(=O)(=O)CC3)nncc2c1` [Example 127, 3-[1-(1,1-dioxidothiomorpholin-4-yl)phthalazin-6-yl]-4-methylbenzamide] has a pIC50 of at least 5.30.
`Cc1ccc(C(N)=O)cc1-c1ccc2c(N3CCSCC3)nncc2c1` [Example 128, 4-methyl-3-(1-thiomorpholin-4-ylphthalazin-6-yl)benzamide] was tested, and the pIC50 was at least 5.30.
`CCNC(=O)N1CCN(c2nncc3cc(-c4cc(C(=O)NC5CC5)ccc4C)ccc23)CC1` [Example 129, 4-(6-{5-[(cyclopropylamino)carbonyl]-2-methylphenyl}phthalazin-1-yl)-N-ethylpiperazine-1-carboxamide] was tested, and the pIC50 was at least 5.30.
In the case of `CC[C@@H]1CCCCN1c1nncc2cc(-c3cc(C(=O)NC4CC4)ccc3C)ccc12` [Example 130, N-cyclopropyl-3-{1-[(2R)-2-ethylpiperidin-1-yl]phthalazin-6-yl}-4-methylbenzamide], the pIC50 was at least 5.30.
For `Cc1ccc(-c2nncc3cc(-c4cc(C(=O)NC5CC5)ccc4C)ccc23)cc1` [Example 131, N-cyclopropyl-4-methyl-3-[1-(4-methylphenyl)phthalazin-6-yl]benzamide], the pIC50 was at least 5.30.
`Cc1ccc(C(=O)NC2CC2)cc1-c1ccc2c(N3CCC[C@@H](C(N)=O)C3)nncc2c1` [Example 132, (3R)-1-(6-{5-[(cyclopropylamino)carbonyl]-2-methylphenyl}phthalazin-1-yl)piperidine-3-carboxamide] showed a pIC50 of at least 5.30.
Compound `Cc1ccc(C(=O)NC2CC2)cc1-c1ccc2c(N3CCS(=O)(=O)CC3)nncc2c1` [Example 133, N-cyclopropyl-3-[1-(1,1-dioxidothiomorpholin-4-yl)phthalazin-6-yl]-4-methylbenzamide] has a pIC50 of at least 5.30.
Compound `Cc1ccc(C(=O)NC2CC2)cc1-c1ccc2c(N3CCSCC3)nncc2c1` [Example 134, N-cyclopropyl-4-methyl-3-(1-thiomorpholin-4-ylphthalazin-6-yl)benzamide] has a pIC50 of at least 5.30.
For `Cc1cc(F)c(C(=O)NC2CC2)cc1-c1ccc2c(N3C[C@@H](C)OC[C@H]3C)nncc2c1` [Example 135, N-cyclopropyl-5-{1-[(2R,5R)-2,5-dimethylmorpholin-4-yl]phthalazin-6-yl}-2-fluoro-4-methylbenzamide], the pIC50 was at least 5.30.
`Cc1ccc(C(=O)NC2CC2)cc1-c1ccc2c(N3CC[C@H]4CCCC[C@H]4C3)nncc2c1` [Example 136, 3-{1-[(4aR,8aR)-octahydroisoquinolin-2(1H)-yl]phthalazin-6-yl}-N-cyclopropyl-4-methylbenzamide] gave a pIC50 of at least 5.30.
Compound `Cc1ccc([N+](=O)[O-])cc1-c1ccc2c(N3CCOCC3)nncc2c1` [Example 137, 6-(2-methyl-5-nitrophenyl)-1-morpholin-4-ylphthalazine] has a pIC50 of at least 5.30.
`CCOC(=O)c1ccc(C)c(-c2ccc3c(NC(C)C)nncc3c2)c1` [Example 138, ethyl 3-[1-(isopropylamino)phthalazin-6-yl]-4-methylbenzoate] was tested, and the pIC50 was at least 5.30.
In the case of `Cc1ccc(C(=O)NC2CC2)cc1-c1ccc2c(N3CCN(C(=O)NCc4ccc(F)cc4)CC3)nncc2c1` [Example 139, 4-(6-{5-[(cyclopropylamino)carbonyl]-2-methylphenyl}phthalazin-1-yl)-N-(4-fluorobenzyl)piperazine-1-carboxamide], the pIC50 was at least 5.30.
In the case of `Cc1ccc(C(=O)NC2CC2)cc1-c1ccc2c(N3CCN[C@H](C)C3)nncc2c1` [Example 140, N-cyclopropyl-4-methyl-3-{1-[(3R)-3-methylpiperazin-1-yl]phthalazin-6-yl}benzamide], the pIC50 was at least 5.30.
Compound `Cc1ccc(C(=O)NC2CC2)cc1-c1ccc2c(N)nncc2c1` [Example 141, 3-(1-aminophthalazin-6-yl)-N-cyclopropyl-4-methylbenzamide] has a pIC50 of at least 5.30.
`Cc1ccc(C(=O)NC2CC2)cc1-c1ccc2c(N3C[C@@H](C)O[C@@H](C)C3)nncc2c1` [Example 142, N-cyclopropyl-3-{1-[(2R,6S)-2,6-dimethylmorpholin-4-yl]phthalazin-6-yl}-4-methylbenzamide] was tested, and the pIC50 was at least 5.30.
`Cc1ccc(C(N)=O)cc1-c1ccc2c(N3CCNC[C@H]3C)nncc2c1` [Example 143, 4-methyl-3-{1-[(2R)-2-methylpiperazin-1-yl]phthalazin-6-yl}benzamide] showed a pIC50 of at least 5.30.
`Cc1ccc(C(=O)NC2CC2)cc1-c1ccc2c(N3C[C@@H]4C[C@H]3CN4C(C)C)nncc2c1` [Example 144, N-cyclopropyl-3-{1-[(1S,4S)-5-isopropyl-2,5-diazabicyclo[2.2.1]hept-2-yl]phthalazin-6-yl}-4-methylbenzamide] was tested, and the pIC50 was at least 5.30.
With `Cc1ccc(C(N)=O)cc1-c1ccc2c(Cl)nncc2c1` [Example 145, 3-(1-chlorophthalazin-6-yl)-4-methylbenzamide] the pIC50 was at least 5.30.
`Cc1ccc(C(N)=O)cc1-c1ccc2c(N3CCNC[C@@H]3C)nncc2c1` [Example 146, 4-methyl-3-{1-[(2S)-2-methylpiperazin-1-yl]phthalazin-6-yl}benzamide] gave a pIC50 of at least 5.30.
Compound `Cc1ccc(C(=O)NC2CC2)cc1-c1ccc2c(N3C[C@@H](C)NC[C@@H]3C)nncc2c1` [Example 147, N-cyclopropyl-3-{1-[(2S,5R)-2,5-dimethylpiperazin-1-yl]phthalazin-6-yl}-4-methylbenzamide] has a pIC50 of at least 5.30.
`Cc1ccc(C(=O)NC2CC2)cc1-c1ccc2c(N3C[C@@H](C)N[C@@H](C)C3)nncc2c1` [Example 148, N-cyclopropyl-3-{1-[(3R,5S)-3,5-dimethylpiperazin-1-yl]phthalazin-6-yl}-4-methylbenzamide] gave a pIC50 of at least 5.30.
With `Cc1ccc(C(=O)NC2CC2)cc1-c1ccc2c(N3CCN[C@@H](C)C3)nncc2c1` [Example 149, N-cyclopropyl-4-methyl-3-{1-[(3S)-3-methylpiperazin-1-yl]phthalazin-6-yl}benzamide] the pIC50 was at least 5.30.
`Cc1ccc(C(=O)NC2CC2)cc1-c1ccc2c(C3CCN(C)CC3)nncc2c1` [Example 150, N-cyclopropyl-4-methyl-3-[1-(1-methylpiperidin-4-yl)phthalazin-6-yl]benzamide] was tested, and the pIC50 was at least 5.30.
For `Cc1ccc(C(=O)NC2CC2)cc1-c1ccc2c(N3CCC[C@H]3CO)nncc2c1` [Example 151, N-cyclopropyl-3-{1-[(2S)-2-(hydroxymethyl)pyrrolidin-1-yl]phthalazin-6-yl}-4-methylbenzamide], the pIC50 was at least 5.30.
`Cc1ccc(C(=O)NC2CC2)cc1-c1ccc2c(N3CCC(C)(O)CC3)nncc2c1` [Example 152, N-cyclopropyl-3-[1-(4-hydroxy-4-methylpiperidin-1-yl)phthalazin-6-yl]-4-methylbenzamide] showed a pIC50 of at least 5.30.
`Cc1ccc(C(=O)NC2CC2)cc1-c1ccc2c(C3=CCN(C(=O)OC(C)(C)C)CC3)nncc2c1` [Example 153, tert-butyl 4-(6-{5-[(cyclopropylamino)carbonyl]-2-methylphenyl}phthalazin-1-yl)-3,6-dihydropyridine-1(2H)-carboxylate] gave a pIC50 of at least 5.30.
